Source: US11154482B2, “Peptide, composition and method for anti-hair graying” (Renorigin Innovation Institute Co., Ltd., priority 2020, dated 2021)

Tests used:
DPPH assay = assay type: physicochemical; conditions: 50 μg/ml peptide, 0.2 mM DPPH, 16 h in the dark at room temperature, absorbance 515 nm
Description: 50 μg/ml peptide of SEQ ID NO: 1 was treated with 0.2 mM DPPH for 16 h. Data are represented as the means±SD from three independent experiments. ***p<0.001.
50 μg/ml peptide of SEQ ID NO: 1 was added in 96-well plates and incubated with 0.2 mM DPPH. Plates incubated in the dark for 16 hours at room temperature. After 16 h, the absorbance was measured at 515 nm using an automated plat reader (molecular devices).

[1] = test system: B16F10 murine melanoma cells; assay: Prevention of hydrogen peroxide-induced oxidative stress injury (MTT cell viability assay); assay type: cell-based; conditions: 50 μg/ml peptide for 24 h, then 0.5 mM hydrogen peroxide for 2 h
Description: (§1) B16F10 murine melanoma cells (American Type Culture Collection, Manassas, Va., USA) were cultured in Dulbecco's modified Eagle's medium (DMEM) (Thermo Scientific, Barrington, Ill., USA) with 10% fetal bovine serum (FBS) (Gibco, Grand Island, N.Y., USA) and penicillin/streptomycin (100 IU/[…]) in a humidified atmosphere containing 5% CO2 at 37° C.
(§2) Cells (1×10^3) were seeded in 96-well plates. After treatment with hydrogen peroxide and peptide of SEQ ID NO: 1, MTT was added to a final concentration of 0.5 mg/ml and incubated for 4 h at 37° C. to allow MTT reduction. The formazan crystals were then dissolved in 10% sodium dodecyl sulfate (SDS) containing 0.01 N HCl and absorbance was measured at the dual wavelengths of 570 and 630 nm with a spectrophotometer (VersaMax; Molecular Devices, Silicon Valley, Calif., USA).
Cells were treated with 50 μg/ml peptide of SEQ ID NO: 1 for 24 h and then exposed to 0.5 mM hydrogen peroxide for 2 h.

[2] = test system: B16F10 murine melanoma cells; assay: Protection against hydrogen peroxide-induced oxidative stress injury (MTT cell viability assay); assay type: cell-based; conditions: 30 μM hydrogen peroxide for 24 h, then 50 μg/ml peptide and hydrogen peroxide for 48 h
Description: as §1, §2
Cells were exposed to 30 μM hydrogen peroxide for 24 h and then treated with 50 μg/ml peptide of SEQ ID NO: 1 and hydrogen peroxide for 48 h.

Bleaching of hair = conditions: 7.5% hydrogen peroxide, 400 μg/ml peptide, 14 days
Description: FIG. 4 provides photographs of the hairs decolored with 7.5% hydrogen peroxide. Top panel, 7.5% hydrogen peroxide only; bottom panel, 7.5% hydrogen peroxide and incubated with 400 μg/ml peptide of the invention.
Hairs were treated with 7.5% hydrogen peroxide with or without peptide of SEQ ID NO: 1 for 14 days.

FKCRRWQWRMKKL [Peptide of SEQ ID NO: 1]
DPPH radical scavenging capacity (DPPH assay): significantly decreased DPPH radical scavenging capacity
hydrogen peroxide-induced stress injury (MTT assay), prevention [1]: attenuates hydrogen peroxide-induced stress injury
hydrogen peroxide-induced stress injury (MTT assay), protection [2]: attenuates hydrogen peroxide-induced stress injury
hair color after hydrogen peroxide immersion (Bleaching of hair): hair still had bright yellow
